Source: PubChem BioAssay AID248 (DTP/NCI, 2004)
Inconclusive results and toxic doses are left out. Cut-off read from the data, not from the text of the source: active = T/C of 150% or more; inactive = T/C below 125%.

System: L1210 leukemia ip in BDF1 mice, survival T/C
Assay: NCI In Vivo Anticancer Drug Screen. Data for tumor model L1210 Leukemia (intraperitoneal) in B6D2F1 (BDF1) mice
Conditions: endpoint: mean survival time, higher = longer survival
How it was run: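 Transplanted-tumor mice were given test agent; controls received vehicle only. Survival readings from the two groups were divided (treated over control).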

[1] = dose: 100.0 mg/kg/injection, schedule: Q04DX003 (ip), vehicle: saline with Tween-80
[2] = dose: 200.0 mg/kg/injection, schedule: Q04DX003 (ip), vehicle: saline with Tween-80
[3] = dose: 400.0 mg/kg/injection, schedule: Q04DX003 (ip), vehicle: saline with Tween-80
[4] = dose: 50.0 mg/kg/injection, schedule: Q04DX003 (ip), vehicle: saline with Tween-80
[5] = dose: 100.0 mg/kg/injection, schedule: Q01DX009 (ip), vehicle: saline with Tween-80
[6] = dose: 200.0 mg/kg/injection, schedule: Q01DX009 (ip), vehicle: saline with Tween-80
[7] = dose: 100.0 mg/kg/injection, schedule: Q04DX003 (ip), vehicle: Klucel (hydroxypropylcellulose) (HPC)
[8] = dose: 200.0 mg/kg/injection, schedule: Q04DX003 (ip), vehicle: Klucel (hydroxypropylcellulose) (HPC)
[9] = dose: 400.0 mg/kg/injection, schedule: Q04DX003 (ip), vehicle: Klucel (hydroxypropylcellulose) (HPC)
[10] = dose: 100.0 mg/kg/injection, schedule: Q01DX009 (ip), vehicle: Klucel (hydroxypropylcellulose) (HPC)
[11] = dose: 200.0 mg/kg/injection, schedule: Q01DX009 (ip), vehicle: Klucel (hydroxypropylcellulose) (HPC)
[12] = dose: 400.0 mg/kg/injection, schedule: Q01DX009 (ip), vehicle: Klucel (hydroxypropylcellulose) (HPC)
[13] = dose: 100.0 mg/kg/injection, schedule: Q01DX001 (ip), vehicle: saline
[14] = dose: 200.0 mg/kg/injection, schedule: Q01DX001 (ip), vehicle: saline
[15] = dose: 400.0 mg/kg/injection, schedule: Q01DX001 (ip), vehicle: saline

Measured: T/C

Cc1ccccc1N1CCN(c2ccccc2C)C1=C1N(c2ccccc2C)CCN1c1ccccc1C
inactive: dose: 100.0 mg/kg/injection, schedule: Q04DX002 (ip), vehicle: DMSO 103 % of control | dose: 200.0 mg/kg/injection, schedule: Q04DX002 (ip), vehicle: DMSO 98 % of control

C=CCOC(=O)C1c2ccccc2Cc2ccccc21
inactive: [1] 97 % of control | [2] 97 % of control | [3] 95 % of control

ClCc1ccc(OCc2ccccc2)c(OCc2ccccc2)c1
inactive: dose: 100.0 mg/kg/injection, schedule: Q04DX003 (ip), vehicle: water 104 % of control | dose: 200.0 mg/kg/injection, schedule: Q04DX003 (ip), vehicle: water 100 % of control | dose: 400.0 mg/kg/injection, schedule: Q04DX003 (ip), vehicle: water 102 % of control

Cc1ccc(C#N)cc1.Cc1ccc(C#N)cc1.[Cl][Pt][Cl]
inactive: dose: 6.25 mg/kg/injection, schedule: Q04DX003 (ip), vehicle: water 109 % of control | dose: 12.5 mg/kg/injection, schedule: Q04DX003 (ip), vehicle: water 109 % of control | dose: 25.0 mg/kg/injection, schedule: Q04DX003 (ip), vehicle: water 106 % of control | dose: 50.0 mg/kg/injection, schedule: Q04DX003 (ip), vehicle: water 105 % of control

CCC(O)CNC1CCCCC1 (centres undefined)
inactive: dose: 75.0 mg/kg/injection, schedule: Q01DX001 (ip), vehicle: saline 98 % of control | dose: 150.0 mg/kg/injection, schedule: Q01DX001 (ip), vehicle: saline 98 % of control

CC(OC(=O)CBr)C(C)OC(=O)CBr (centres undefined)
inactive: dose: 50.0 mg/kg/injection, schedule: Q01DX001 (sc), vehicle: carboxymethylcellulose (CMC) 98 % of control | dose: 100.0 mg/kg/injection, schedule: Q01DX001 (sc), vehicle: carboxymethylcellulose (CMC) 98 % of control | dose: 200.0 mg/kg/injection, schedule: Q01DX001 (sc), vehicle: carboxymethylcellulose (CMC) 95 % of control | dose: 400.0 mg/kg/injection, schedule: Q01DX001 (sc), vehicle: carboxymethylcellulose (CMC) 98 % of control

CCCC[N+](C)(C)CCCOC(=O)C1C2CC3OC(=O)C1C3C2 (centres undefined)
inactive: dose: 12.5 mg/kg/injection, schedule: Q01DX003 (ip), vehicle: saline with Tween-80 97 % of control | dose: 25.0 mg/kg/injection, schedule: Q01DX003 (ip), vehicle: saline with Tween-80 100 % of control | dose: 50.0 mg/kg/injection, schedule: Q01DX003 (ip), vehicle: saline with Tween-80 97 % of control | [4] 101 % of control | [1] 103 % of control

Cc1cc(OC(=O)Nc2cccc(Cl)c2C)ccc1Cl
inactive: [5] 99 % of control | [1] 93 % of control | [6] 99 % of control | [2] 91 % of control | dose: 400.0 mg/kg/injection, schedule: Q01DX009 (ip), vehicle: saline with Tween-80 89 % of control | [3] 98 % of control

Cc1cc(C)c(NC(=O)NCCCl)cc1C
inactive: [7] 104 % of control | [8] 89 % of control | [9] 93 % of control

CN=Cc1ccccc1
inactive: [4] 91 % of control | [1] 94 % of control

CC1(C)OC2OC(COC(=O)c3ccccc3)C(OC(=O)Nc3ccccc3)C2O1 (centres undefined)
inactive: [1] 93 % of control | [2] 98 % of control | [3] 97 % of control

Cc1ccc(C)c(NC(=O)NCc2ccco2)c1
inactive: [5] 97 % of control | [6] 89 % of control

OCCNc1nc2ccc(Br)cc2c2ccccc12
inactive: [10] 87 % of control | [7] 93 % of control | [8] 93 % of control | [9] 106 % of control

O=S(=O)(C1CC1c1ccccc1)N(c1ccccc1)c1ccccc1 (centres undefined)
inactive: dose: 100.0 mg/kg/injection, schedule: Q01DX001 (ip), vehicle: Klucel (hydroxypropylcellulose) (HPC) 94 % of control | [7] 93 % of control | dose: 200.0 mg/kg/injection, schedule: Q01DX001 (ip), vehicle: Klucel (hydroxypropylcellulose) (HPC) 100 % of control | [8] 93 % of control | dose: 400.0 mg/kg/injection, schedule: Q01DX001 (ip), vehicle: Klucel (hydroxypropylcellulose) (HPC) 97 % of control | [9] 93 % of control

N#CCC(C#N)N1CCOCC1 (centres undefined)
inactive: dose: 25.0 mg/kg/injection, schedule: Q01DX009 (ip), vehicle: saline with Tween-80 92 % of control | dose: 50.0 mg/kg/injection, schedule: Q01DX009 (ip), vehicle: saline with Tween-80 104 % of control | [5] 93 % of control | [1] 97 % of control

BrCCCC1CCCCC1
inactive: [10] 104 % of control | [7] 100 % of control | [11] 97 % of control | [8] 104 % of control | [12] 92 % of control | [9] 105 % of control

CCCCCC(C)NCCOC(=O)c1ccc([N+](=O)[O-])cc1 (centres undefined)
inactive: dose: 75.0 mg/kg/injection, schedule: Q01DX001 (ip), vehicle: other 103 % of control | dose: 150.0 mg/kg/injection, schedule: Q01DX001 (ip), vehicle: other 103 % of control | dose: 300.0 mg/kg/injection, schedule: Q01DX001 (ip), vehicle: other 106 % of control

C[N+]1(CCO)CC[N+](C)(CCO)CC1 (centres undefined)
inactive: dose: 100.0 mg/kg/injection, schedule: Q04DX002 (ip), vehicle: saline 90 % of control | dose: 200.0 mg/kg/injection, schedule: Q04DX002 (ip), vehicle: saline 104 % of control | dose: 400.0 mg/kg/injection, schedule: Q04DX002 (ip), vehicle: saline 101 % of control

CCOc1ccc(OCC(=O)O)cc1
inactive: [7] 93 % of control | [8] 89 % of control | [9] 89 % of control

COc1cccc(C2CCCCCC2OS(C)(=O)=O)c1OC (centres undefined)
inactive: [13] 109 % of control | dose: 100.0 mg/kg/injection, schedule: Q04DX003 (ip), vehicle: saline 102 % of control | [14] 102 % of control | dose: 200.0 mg/kg/injection, schedule: Q04DX003 (ip), vehicle: saline 109 % of control | [15] 112 % of control | dose: 400.0 mg/kg/injection, schedule: Q04DX003 (ip), vehicle: saline 102 % of control

COc1cc(OC)c(-c2nc3ccccc3c(=O)o2)cc1OC
inactive: dose: 75.0 mg/kg/injection, schedule: Q01DX009 (ip), vehicle: Klucel (hydroxypropylcellulose) (HPC) 93 % of control | dose: 150.0 mg/kg/injection, schedule: Q01DX009 (ip), vehicle: Klucel (hydroxypropylcellulose) (HPC) 97 % of control | dose: 300.0 mg/kg/injection, schedule: Q01DX009 (ip), vehicle: Klucel (hydroxypropylcellulose) (HPC) 101 % of control

COc1ccc(Cl)cc1NC(=O)CC(C)=O
inactive: [10] 101 % of control | [7] 97 % of control | [11] 101 % of control | [8] 99 % of control | [12] 95 % of control | [9] 94 % of control

CNC(CCC(=O)O)C(=O)O (centres undefined)
inactive: [13] 89 % of control | [14] 96 % of control | [15] 91 % of control

CSc1nc(N)c(N=Nc2ccc(S(=O)(=O)Nc3ccccn3)cc2)c(=O)[nH]1
inactive: dose: 100.0 mg/kg/injection, schedule: Q01DX001 (ip), vehicle: carboxymethylcellulose (CMC) 92 % of control | dose: 200.0 mg/kg/injection, schedule: Q01DX001 (ip), vehicle: carboxymethylcellulose (CMC) 101 % of control | dose: 400.0 mg/kg/injection, schedule: Q01DX001 (ip), vehicle: carboxymethylcellulose (CMC) 95 % of control
